Results reported in patent US20130196362A1, “DIARYLAMINE-BASED FLUOROGENIC PROBES FOR DETECTION OF PEROXYNITRITE” (THE UNIVERSITY OF HONG KONG, priority 2012, published 2013).

Legend:
[1] = Reactivity of probe toward different ROS and RNS (selectivity) in phosphate buffer; conditions: for increase in fluorescence intensity with peroxynitrite versus other ROS and RNS: OCl-, pH 7.4
Experimental: (§1) FIG. 1A depicts fluorescence spectra showing fluorescence intensities of compound 2 after treatment with different amounts of peroxynitrite. […] The spectra were acquired by dissolving Compound 2 in 0.1 M phosphate buffer at pH 7.4 to form a 1 μM solution, with excitation and emission spectra at 510 nm and 530 nm, respectively. The concentration of highly reactive oxygen species hydroxyl radical (.OH), hypochlorous acid (^−OCl), and peroxynitrite (ONOO^−) is 1 μM. The concentration of ^1O2, O2.^−, NO, ROO. and H2O2 is 10 μM.
(§2) FIG. 2A depicts fluorescence spectra showing fluorescence intensities of Compound 11 after treatment with different amounts of peroxynitrite. […] The spectra were acquired by dissolving […] in 0.1M phosphate buffer at pH 7.4 to form a 2 μM solution, with excitation and emission at 547 nm and 570 nm, respectively. The concentration of highly reactive oxygen species hydroxyl radical (.OH), hypochlorous acid (^−OCl), and peroxynitrite (ONOO^−) is 2 μM. The concentration of ^1O2, O2.^−, NO, ROO. and H2O2 is 20 μM.
(§3) FIG. 3A depicts fluorescence spectra showing fluorescence intensities of Compound 22 after treatment with different amounts of peroxynitrite. […] The spectra were acquired by dissolving Compound 22 in 0.1M phosphate buffer at pH 7.4 to form a 5 μM solution, with excitation at 600 nm and emission at 617 nm, respectively. The concentration of highly reactive oxygen species hydroxyl radical (.OH), hypochlorous acid (^−OCl), and peroxynitrite (ONOO^−) is 5 μM. The concentration of ^1O2, O2.^−, NO, ROO. and H2O2 is 50 μM.
(§4) FIG. 4A depicts fluorescence spectra showing fluorescence intensities of Compound 25 after treatment with different amounts of peroxynitrite. […] The spectra were acquired by dissolving Compound 25 in 0.1M phosphate buffer at pH 7.4 to form a 5 μM solution, with excitation at 650 nm and emission at 665 nm, respectively. The concentration of highly reactive oxygen species hydroxyl radical (.OH), hypochlorous acid (^−OCl), and peroxynitrite (ONOO^−) is 5 μM. The concentration of ^1O2, O2.^−, NO, ROO. and H2O2 is 50 μM.
(§5) FIG. 5A depicts fluorescence spectra showing fluorescence intensities of Compound 30 after treatment with different amounts of peroxynitrite. […] The spectra were acquired by dissolving Compound 30 in 0.1 M phosphate buffer at pH 7.4 and exciting at 515 nm. The concentration of highly reactive oxygen species hypochlorous acid (^−OCl) and peroxynitrite (ONOO^−) is 1 μM. The concentration of hydroxyl radical (.OH) is 1 μM or 10 μM. The concentration of ^1O2, O2.^−, NO, ROO. and H2O2 is 10 μM or 100 μM. (see figure for exact concentrations of certain ROS and RNS)
The reactivity of Compound 2 is compared toward different reactive oxygen species (ROS) and reactive nitrogen species (RNS). Specifically, the 1 μM solution of compound 2 is treated with various ROS and RNS. The concentration of highly reactive oxygen species (hydroxyl radical (.OH), hypochlorous acid (^−OCl), and peroxynitrite (ONOO^−)) is 1 μM. The concentration of ^1O2, O2.^−, NO, ROO. and H2O2 is 10 μM.
The reactivity of Compound 11 is compared with different reactive oxygen species (ROS) and reactive nitrogen species (RNS). Specifically, the 2 μM solution of compound 11 is treated with various ROS and RNS. The concentration of highly reactive oxygen species (hydroxyl radical (.OH), hypochlorous acid (^−OCl), and peroxynitrite (ONOO^−)) is 2 μM. The concentration of ^1O2, O2.^−, NO, ROO. and H2O2 is 20 μM.
The reactivity of Compound 22 is compared with different reactive oxygen species (ROS) and reactive nitrogen species (RNS). Specifically, the 5 μM solution of compound 22 is treated with various ROS and RNS. The concentration of highly reactive oxygen species (hydroxyl radical (.OH), hypochlorous acid (^−OCl), and peroxynitrite (ONOO^−)) is 5 μM. The concentration of ^1O2, O2.^−, NO, ROO. and H2O2 is 50 μM. […]

[2] = Fluorescence response of probe to increasing peroxynitrite in phosphate buffer
Experimental: as §1, §2, §3, §4, §5
Specifically, Compound 2 is dissolved in 0.1 M phosphate buffer at pH 7.4 to form a 1 μM solution, with excitation and emission spectra at 510 nm and 530 nm, respectively. The 1 μM solution of Compound 2 is treated with peroxynitrite at various concentrations.
Specifically, Compound 11 is dissolved in 0.1 M phosphate buffer at pH 7.4 to form a 2 μM solution, with excitation and emission spectra at 547 nm and 570 nm, respectively. The 2 μM solution of Compound 11 is treated with peroxynitrite at various concentrations.
Specifically, Compound 22 is dissolved in 0.1 M phosphate buffer at pH 7.4 to form a 5 μM solution, with excitation and emission spectra at 600 nm and 617 nm, respectively. The 5 μM solution of Compound 22 is treated with peroxynitrite at various concentrations. […]

[3] = test system: SH-SY5Y neuroblastoma cells; assay: Fluorescent microscopy of SH-SY5Y cells with or without SIN-1; format: cell-based, Human; conditions: incubated 1 hr; for fluorescence in the absence of stimulants: washed with PBS, no SIN-1; for fluorescence after treatment with stimulants: with SIN-1
Experimental: SH-SY5Y cells were co-stained with different compounds with or without SIN-1 for 1 h, and then washed quickly with PBS for 3 times and maintained in non-phenol red medium. Left: no SIN-1 treatment; Right: with SIN-1 treatment.
SH-SY5Y cells were co-stained with different compounds with or without SIN-1 for 1 h, and then washed quickly with PBS for 3 times and maintained in non-phenol red medium. Left: no SIN-1 treatment; Middle: with 1 mM SIN-1 treatment; Right: with 100 μM SIN-1 treatment.
SH-SY5Y cells were co-stained with different compounds with or without SIN-1 for 1 h, and then washed quickly with PBS for 3 times and maintained in non-phenol red medium. Left: no SIN-1 treatment; Middle: with 100 μM SIN-1 treatment; Right: with 200 μM SIN-1 treatment.
(§6) Human SH-SY5Y neuroblastoma cells (ATCC, USA) were maintained in high glucose Dulbecco's Modified Eagle Medium (DMEM, Hyclone) supplemented with 10% fetal bovine serum (FBS, Gibco), 1% penicillin/streptomycin (PS, Gibco) and 1% L-glutamine (Gibco). Mouse C17.2 neural progenitor cells (ATCC, USA) were maintained in high glucose Dulbecco's Modified Eagle Medium supplemented with 8% fetal bovine serum (Gibco), 4% horse serum (Gibco), 1% penicillin/streptomycin and 1% L-glutamine. Mouse RAW264.7 macrophage cells (ATCC, USA) were maintained in high glucose Dulbecco's Modified Eagle Medium (DMEM, Hyclone) supplemented with 10% fetal bovine serum (Gibco), 1% penicillin/streptomycin (Gibco) and 1% L-glutamine.
(§7) Generally, cells were grown to confluence prior to experiment. Cells were incubated with Compounds) 6, 7, 8, 14, 20, 21, 24, 27, and 32, respectively for 1 hr, and then washed three times with PBS buffer.

[4] = test system: C17.2 neural progenitor cells; assay: Fluorescent microscopy of C17.2 cells with or without SIN-1; format: cell-based, Mouse; conditions: for fluorescence in the absence of stimulants: no SIN-1; for fluorescence after treatment with stimulants: with SIN-1
Experimental: The cells were incubated with Compound 20 or 21 at a concentration of 1 μM, and then treated with (Lower) or without (Upper) SIN-1.
The cells were incubated with Compound 32 at a concentration of 5 μM.
as §6, §7

Q: For `CN(c1ccc(O)cc1)c1ccc2c(-c3ccc(C(=O)N(CC(=O)O)CC(=O)O)cc3C(=O)O)c3ccc(=O)cc-3oc2c1` [Compound 2], which “increase in fluorescence intensity with peroxynitrite versus other ROS and RNS” value (shortened to “increase in fluorescence intensity”) ([1]; 1 μM probe, .OH, ONOO- 1 μM, 1O2, O2.-, NO, ROO., H2O2 10 μM) is on record?
A: much higher increase in fluorescence intensity

Q: What about the “fluorescence intensity after treatment with peroxynitrite at various concentrations” value (from here on “fluorescence intensity after treatment”) ([2]; 1 μM solution in 0.1 M phosphate buffer pH 7.4, excitation 510 nm, emission 530 nm) of the same compound?
A: increases with increasing concentration of peroxynitrite

Q: With `COC(=O)CN(CC(=O)OC)C(=O)c1ccc2c(c1)C(=O)OC21c2ccc(OC(C)=O)cc2Oc2cc(N(C)c3ccc(O)cc3)ccc21` (stereo not drawn) [Compound 7] as the compound, how does the “fluorescence in the absence of stimulants” value (“fluorescence in the absence” for short) [3] read?
A: very weak fluorescence

Q: What about the “fluorescence after treatment with stimulants” value (from here on “fluorescence after treatment”) [3] of the same compound?
A: strongly induced

Q: With `COC(=O)CCN(CCC(=O)OC)C(=O)c1ccc2c(c1)C(=O)OC21c2ccc(OC(C)=O)cc2Oc2cc(N(C)c3ccc(O)cc3)ccc21` (stereo not drawn) [Compound 8] as the compound, how does the “fluorescence in the absence” value [3] read?
A: very weak fluorescence

Q: What about the “fluorescence after treatment” value [3] of the same compound?
A: strongly induced

Q: For `CC1CC(C)(C)[N+](CCCC(=O)O)=c2cc3c(cc21)=C(c1ccccc1C(=O)O)c1cc(Cl)c(N(C)c2ccc(O)cc2)cc1O3` (stereo not drawn) [Compound 11], which “increase in fluorescence intensity” value ([1]; 2 μM probe, .OH, ONOO- 2 μM, 1O2, O2.-, NO, ROO., H2O2 20 μM) is on record?
A: much higher increase in fluorescence intensity

Q: And the “fluorescence intensity after treatment” value ([2]; 2 μM solution in 0.1 M phosphate buffer pH 7.4, excitation 547 nm, emission 570 nm)?
A: increases with increasing concentration of peroxynitrite

Q: Which “fluorescence in the absence” value [4] does the source give for `CC[N+]1=c2cc3c(cc2C(C)CC1(C)C)=C(c1ccc(CCl)cc1C)c1ccc(N(C)c2ccc(O)cc2)cc1O3` (stereo not drawn) [Compound 20] here?
A: very weak fluorescence

Q: And the “fluorescence after treatment” value [4]?
A: strongly induced

Q: Which “fluorescence in the absence” value [4] does the source give for `CC[N+]1=c2cc3c(cc2C(C)CC1(C)C)=C(c1ccc(C)cc1C)c1ccc(N(C)c2ccc(O)cc2)cc1O3` (stereo not drawn) [Compound 21] here?
A: very weak fluorescence

Q: And the “fluorescence after treatment” value [4]?
A: strongly induced

Q: With `Cc1cc(C(=O)O)ccc1C1=C2C=CC(=O)C=C2[Si](C)(C)c2cc(N(C)c3ccc(O)cc3)ccc21` [Compound 22] as the compound, how does the “increase in fluorescence intensity” value ([1]; 5 μM probe, ex 600/em 617 nm, .OH, ONOO- 5 μM, 1O2, O2.-, NO, ROO., H2O2 50 μM) read?
A: much higher increase in fluorescence intensity

Q: What about the “fluorescence intensity after treatment” value ([2]; 5 μM solution in 0.1 M phosphate buffer pH 7.4, excitation 600 nm, emission 617 nm) of the same compound?
A: increases with increasing concentration of peroxynitrite

Q: With `COC(=O)CN(CC(=O)OC)C(=O)c1ccc(C2=C3C=CC(=O)C=C3[Si](C)(C)c3cc(N(C)c4ccc(O)cc4)ccc32)c(C)c1` [Compound 24] as the compound, how does the “fluorescence in the absence” value [3] read?
A: very weak fluorescence

Q: And the “fluorescence after treatment” value [3]?
A: strongly induced

Q: With `CC[N+]1=c2cc3c(cc2C(C)CC1(C)C)=C(c1ccc(C(=O)O)cc1C)c1ccc(N(C)c2ccc(O)cc2)cc1[Si]3(C)C` (stereo not drawn) [Compound 25] as the compound, how does the “increase in fluorescence intensity” value ([1]; 5 μM probe, ex 650/em 665 nm, .OH, ONOO- 5 μM, 1O2, O2.-, NO, ROO., H2O2 50 μM) read?
A: much higher increase in fluorescence intensity

Q: And the “fluorescence intensity after treatment” value ([2]; 5 μM solution in 0.1 M phosphate buffer pH 7.4, excitation 650 nm, emission 665 nm)?
A: increases with increasing concentration of peroxynitrite

Q: With `CN(c1ccc(O)cc1)c1ccc2c(-c3ccccc3C(=O)N3CCN(C(=O)CCCC[P+](c4ccccc4)(c4ccccc4)c4ccccc4)CC3)c3ccc(=O)cc-3oc2c1` [Compound 30] as the compound, how does the “increase in fluorescence intensity” value ([1]; 1 μM solution of compound 30, ex 515 nm, em 540 nm, ONOO- 1 μM, .OH 1 or 10 μM, others 10 or 100 μM) read?
A: sensitively and selectively detects peroxynitrite

Q: What about the emission maximum ([1]; 0.1 M phosphate buffer pH 7.4, exciting at 515 nm) of the same compound?
A: 540 nm

Q: What about the “fluorescence intensity after treatment” value ([2]; 1 μM solution in 0.1 M phosphate buffer pH 7.4, excited at 515 nm) of the same compound?
A: increases with increasing concentration of peroxynitrite
